According to patent publication US8686115B2, “Compositions and methods for quantitatively monitoring lipids” (The Board of Trustees of the University of Illinois, priority 2009, dated 2014):
Numbering of substitutions follows the chain as printed.

Key:
[1] = target: T1, DAN-eENTH (epsin 1 ENTH domain variant M10C/C96A/S4W, SEQ ID NO: 2, DAN labeled) mutant L6A/R7A/R8A (Homo sapiens, UniProt Q9Y6I3, C96A/L6A/M10C/R7A/R8A/S4W); assay: SPR binding of DAN-eENTH-L6A/R7A/R8A to phosphoinositide-containing LUVs; conditions: see Table 1
T1 construct: The Epsin1 ENTH domain (1-158 amino acids) was subcloned; GST (C, cleaved yes); made in house; host or cells: E. coli BL21 RIL codon plus
T1 sequence (Q9Y6I3 with tags, fused parts or gaps C96A): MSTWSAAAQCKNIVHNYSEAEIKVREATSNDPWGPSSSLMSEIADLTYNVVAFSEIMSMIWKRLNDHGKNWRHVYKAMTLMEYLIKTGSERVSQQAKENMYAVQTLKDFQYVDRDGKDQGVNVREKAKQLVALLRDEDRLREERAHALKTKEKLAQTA

[2] = target: T2, DAN-eENTH: epsin 1 ENTH domain variant M10C/C96A/S4W, SEQ ID NO: 2, labeled with DAN at C10 (Homo sapiens, UniProt Q9Y6I3, C96A/M10C/S4W); assay: Ratiometric (FB/FG) two-photon microscopy of DAN-eENTH binding to PtdIns(4,5)P2 in GUVs; conditions: FB/FG versus [PtdIns(4,5)P2]; POPC/POPS/PtdIns(4,5)P2 (80-x:20:x) GUVs; 37° C.; read-out: Kd for PtdIns(4,5)P2 (FB/FG ratiometric analysis)
T2 construct: The Epsin1 ENTH domain (1-158 amino acids) was subcloned; GST (C, cleaved yes); made in house; host or cells: E. coli BL21 RIL codon plus
T2 sequence (Q9Y6I3 1-158 S4W/M10C/C96A): T1 sequence (Q9Y6I3 with tags, fused parts or gaps C96A) with A6L, A7R, A8R
Method: The background correction for FB/FG values was unnecessary because FB=0 in the absence of PtdIns(4,5)P2. […] The theoretic curve was then constructed using these parameters.
To calibrate the fluorescence microscope and the DAN-eENTH sensor for cellular PtdIns(4,5)P2 quantification, we then determined by photon counting F values in the blue channel (FB; observed with a 436±10 band pass filter) and the green channel (FG; observed with a 525±25 band pass filter) when DAN-eENTH was added to the solution of giant unilamellar vesicles (GUV) with the composition of POPC/POPS/PtdIns(4,5)P2 (80-x:20:x with x=0-3). […] The resulting FB versus the surface concentration of PtdIns(4,5)P2 ([PtdIns(4,5)P2]s; see Methods for calculation) (FIG. 2C) or (FB/FG) versus [PtdIns(4,5)P2]s (FIG. 2d) calibration curve was used for ensuing PtdIns(4,5)P2 quantification in GUV and in mammalian cells. With respect to FIG. 5, the bar indicates 10 μm and the radius of this GUV is measured as […]. […]
In vitro calibration of our DAN-eENTH sensor was performed using GUVs composed of POPC/POPS/PtdIns(4,5)P2 (80-x:20:x) (x=0-3 mol %). […] These GUV were mixed with DAN-eENTH in the concentration range of 0-500 nM and spatiotemporally resolved fluorescence measurements were carried out at 37° C. using the custom-built multi-photon, multi-channel microscope that was described previously 13. […]

PtdIns(4,5)P2 affinity [1]: devoid of PtdIns(4,5)P2 affinity
Kd [2]: 44 ± 6 nM
SMILES: CCCCCCCCCCCCCCCC(=O)OC[C@H](COP(=O)(O)O[C@@H]1[C@H](O)[C@H](O)[C@@H](OP(=O)(O)O)[C@H](OP(=O)(O)O)[C@H]1O)OC(=O)CCCCCCCCCCCCCCC [PtdIns(4,5)P2, phosphatidylinositol-4,5-bisphosphate]
